In patent US20240302280A1, “PREPARATION METHOD AND APPLICATION OF VISCOSITY FLUORESCENT PROBE” (Zhengzhou University of Light Industry, priority 2023, published 2024):

Experiments:
[1] = Effect of solution pH on probe fluorescence in PBS/THF (4/1); format: physicochemical; conditions: pH range 1.64 to 11.45
Method: 20 μL of the fluorescent probe stock solution were taken and added dropwise into a PBS/THF (4/1) system, resulting in a final volume of 2 mL.

HeLa cells [2] = test: Cell imaging of response to viscosity (monensin-treated cells); format: cell-based; conditions: probe 10 μM, 30 min, λex=360 nm
Method: FIG. 9 is a fluorescence image of Hela cells; (a-c) HeLa cells were cultured with TzAr-Nap-OH (10 μM) for 30 minutes; (d-f) HeLa cells were treated with monensin (Mo) and incubated with the TzAr-Nap-OH probe for 30 minutes; λex=360 nm, slit=5 nm, scale bar=20 μm.
Images a-c were obtained by treating HeLa cells with TzAr-Nap-OH (10 μM) for 30 mins. HeLa cells were first treated with monensin to increase cell viscosity, and then treated with TzAr-Nap-OH (10 μM) to obtain images d-f.

[3] = Effect of interfering substances on probe fluorescence in PBS/THF (4/1); format: physicochemical; conditions: 10 μM interfering substances
Method: 20 μL of the fluorescent probe stock solution were taken and added dropwise into the PBS/THF (4/1) system, into which 10 μM of other interfering substance solutions were added dropwise, resulint in a final volume is 2 mL. Other interfering substances had little effect on the fluorescence intensity of TzAr-Nap-OH.

[4] = Spectral response of the probe to solution viscosity (glycerol/MeOH); format: physicochemical; conditions: viscosity increased from 1.4 cp to 955 cp by glycerol/MeOH volume ratio
From the text: Therefore, it may be concluded that the fluorescence intensity of TzAr-Nap-OH may be used as a reliable indicator for a quantitative viscosity sensor.

HeLa cells [5] = test: MTT cytotoxicity experiment; format: cell-based; conditions: 0-20 μM probe, 24 hours

Oc1ccc2cc(/C=C/c3nc(-c4ccccc4)nc(-c4ccccc4)n3)ccc2c1 [TzAr-Nap-OH]
change of fluorescence intensity with pH [1]: did not change significantly | fluorescence intensity of monensin-treated cells versus normal cells (HeLa cells [2]): significantly higher | effect of other interfering substances on fluorescence intensity [3]: little effect | increase of fluorescence intensity at 520 nm [4]: ~15 times | survival rate (cell viability) (HeLa cells [5]): over 81%
